Experimental data published in publication PMC12192727, “Strategies to Develop Na,K-ATPase-α4 Inhibitors as Male Contraceptives” (International Journal of Molecular Sciences, 2025).
In brackets after ≈: the same amount, converted by molar mass.

What was measured:
[1] = Solubility as noted when testing was attempted; format: physicochemical
Caco-2 cell permeability = format: in vitro ADME, human; settings: human; for Papp A→B / recovery: Caco-2, Caco-2 cells; for Papp A→B: read-out: Papp (A-B); for Papp B→A / efflux ratio: Caco-2 cells; for efflux ratio: Papp(B-A)/Papp(A-B)
Method: The in vitro permeability and potential to be transported by P-gp (P-glycoprotein) were determined in a Caco-2 or MDCK cell line. Values are reported for a mass recovery > 60%. The efflux ratio was determined as follows: P^app(B-A)/Papp(A-B). The experimental details are reported in the Supporting Information (Tables S2–S5).
The recovery can be determined using the following equation:
Recovery%=(VA×[drug]acceptor+VD×[drug]donor)/(VD×[drug]initial, donor)
Where VA is the volume (in mL) in the acceptor well (0.235 mL for Ap→Bl flux, and 0.075 mL for
Bl→Ap), VD is the volume (in mL) in the donor well (0.075 mL for Ap→Bl flux, and 0.235 mL for
The leakage of Lucifer Yellow, in unit of percentage (%), can be calculated using the following
%LY leakage = 100×[LY]acceptor×0.3/([LY]donor×0.1+[LY]acceptor×0.3)
LY leakage of <1% is acceptable to indicate the well-qualified MDCK/ Caco-2 monolayer.
Table S5 . The Assessment of Caco-2 Cell Monolayer Integrity
The apparent permeability coefficient (Papp), Efflux ratio (ER), recovery percentage, and LY leakage percentage can be
calculated for Caco-2 Cell drug transport assays using the above equations. […]

MDCK cell permeability = settings: dog, MDCK; for Papp A→B / recovery: MDCK cells; for Papp A→B: BSA 0% for controls, 0.5% for 13
physchem = format: physicochemical; settings: PBS pH 7.4; read-out: Solubility
Method: The stock solutions of 11 and 45 were prepared in DMSO at a concentration of 30 mM, and the stock solution of the control compound was prepared in DMSO at a concentration of 30 mM. Progesterone was used as a positive control in the assay. An amount of 10 µL of stock solution of each compound was placed in order into their proper 96-well rack, followed by adding 990 µL of PBS at pH 7.4 into each vial of the capless Solubility Sample plate. This study was performed in duplicate. One stir stick was added to each vial and then sealed using a molded PTDE/SIL 96-Well Plate Cover (Pharmaron, Waltman, MA, USA). The Solubility Sample plate was transferred to the Thermomixer Comfort plate shaker and incubated at RT for 2 h with shaking at 1100 rpm. After 2 h of incubation, stir sticks were removed using a big magnet, and all samples from the Solubility Sample plate were transferred into the filter plate. All the samples were filtered using a vacuum manifold. The filtered samples were diluted with methanol. The soluble fraction (filtrate) was then analyzed by LC-MS/MS, and the compound concentration was determined using 0.3 μM standard solutions prepared from DMSO stocks. The experimental details are reported in the Supporting Information (Table S1). […]
Table S1 . Solubility Results of Test C ompound and Control C ompound in […]
Compound ID Solubility (µM)
Preparation of Stock Solutions: The stock solutions of test compounds were prepared in DMSO at the concentration of 30 mM, and the stock solution of control compound was prepared in DMSO at the concentration of 30 mM.
Progesterone was used as positive control in the assay.
Solubility Determination: 10 µL stock solution of each compound was placed in order into their proper 96-well rack, followed by adding 990 µL of PBS at pH 7.4 into each vial of the cap-less Solubility Sample plate. This study was performed in duplicate. One stir stick was added to each vial and then vials were sealed using a molded PTDE/SIL 96-Well Plate Cover. The Solubility Sample plate was transferred to the Thermomixer Comfort plate shaker and incubated at RT for 2 hours with shaking at 1100 rpm. After 2 hours incubation, stir sticks were removed using a big magnet and all samples from the Solubility Sample plate were transferred into the filter plate. All the samples were filtered by using the Vacuum Manifold. The filtered samples were diluted with methanol. The dilution factor might be changed according to the solubility value and the LC/MS signal response. To prepare 0.3 µM Standards (STD), 30 mM DMSO compound stock solutions were diluted with DMSO to 300 µM and then diluted with methanol to obtain 0.3 µM STDs. Samples were analyzed by LC-MS/MS. All calculations were carried out using Microsoft Excel. The solution filtered was analyzed and quantified against a standard of known concentration in DMSO using LC coupled with Mass spectral peak identification and quantitation. The solubility values of the test compounds were calculated as follow DF means the dilution factor
1. Chromatographic conditions
Apparatus: Triple QuadTM 5500 instrument from AB Inc (Canada) with an ESI interface Column: XSelect Hss T3 2.5µ (2.1×50 mm) Column XP coupled with preguard column Mobile phase: 0.1% formic acid in acetonitrile (A) and 0.1% formic acid in water (B) […]

SMILES: C[C@]12CC[C@H]3[C@@H](CC=C4C[C@@H](O)CC[C@@]43C)[C@@H]1CC[C@@H]2n1cc(-c2ccccc2)nn1 [Compound 30, (3S,8R,9S,10R,13S,14S,17S)-10,13-Dimethyl-17-(4-phenyl-1H-1,2,3-triazol-1-yl)-2,3,4,7,8,9,10,11,12,13,14,15,16,17-tetradecahydro-1H-cyclopenta[a]phenanthren-3-ol]
- Solubility (in words, precluded testing) [1]: inadequate solubility

SMILES: C[C@H]1O[C@@H](O[C@H]2[C@@H](O)C[C@H](O[C@H]3[C@@H](O)C[C@H](O[C@H]4CC[C@@]5(C)[C@H](CC[C@@H]6[C@@H]5C[C@@H](O)[C@]5(C)[C@@H](C7=CC(=O)OC7)CC[C@]65O)C4)O[C@@H]3C)O[C@@H]2C)C[C@H](O)[C@@H]1O [Digoxin]
- Papp A→B (Caco-2 cell permeability): 6.3 nm/s
- recovery (Caco-2 cell permeability; read-out: Recovery (%) AP-BL): 88.7%
- recovery (Caco-2 cell permeability; read-out: Recovery (%) BL-AP): 107%
- Papp B→A (Caco-2 cell permeability): 188 nm/s
- efflux ratio (Caco-2 cell permeability): 30
- Papp B→A (MDCK cell permeability): 32.9 nm/s
- efflux ratio (MDCK cell permeability): 3.26
- Papp A→B (MDCK cell permeability): 10.1 nm/s
- recovery (MDCK cell permeability; Recovery (%) AP-BL): 84%
- recovery (MDCK cell permeability; Recovery (%) BL-AP): 106%

SMILES: COCCc1ccc(OCC(O)CNC(C)C)cc1 (stereo not drawn) [Metoprolol]
- Papp B→A (MDCK cell permeability): 170 nm/s
- efflux ratio (MDCK cell permeability): 0.79
- Papp A→B (MDCK cell permeability): 216 nm/s
- recovery (MDCK cell permeability; Recovery (%) AP-BL): 83.5%
- recovery (MDCK cell permeability; Recovery (%) BL-AP): 97.1%

SMILES: COc1cc2nc(N3CCN(C(=O)c4ccco4)CC3)nc(N)c2cc1OC [Prazosin]
- Papp A→B (Caco-2 cell permeability): 75.9 nm/s
- recovery (Caco-2 cell permeability; read-out: Recovery (%) AP-BL): 71.4%
- recovery (Caco-2 cell permeability; read-out: Recovery (%) BL-AP): 85%
- Papp B→A (Caco-2 cell permeability): 243 nm/s

SMILES: CC(=O)[C@H]1CC[C@H]2[C@@H]3CCC4=CC(=O)CC[C@]4(C)[C@H]3CC[C@]12C [Progesterone, reference compound]
- Solubility (physchem): 18.0 µM (≈ 5.66 µg/mL)

SMILES: CC(C)NCC(O)COc1cccc2ccccc12 (stereo not drawn) [Propranolol]
- Papp A→B (Caco-2 cell permeability): 244 nm/s
- recovery (Caco-2 cell permeability; read-out: Recovery (%) AP-BL): 72.8%
- recovery (Caco-2 cell permeability; read-out: Recovery (%) BL-AP): 86.6%
- Papp B→A (Caco-2 cell permeability): 164 nm/s
- efflux ratio (Caco-2 cell permeability): 0.67

SMILES: CC12CCC(=O)C=C1CCCC2c1cn(Cc2ccccc2)nn1 (stereo not drawn) [Compound 39, 5-(1-Benzyl-1H-1,2,3-triazol-4-yl)-4a-methyl-4,4a,5,6,7,8-hexahydronaphthalen-2(3H)-one]
- Solubility (in words, precluded testing) [1]: poor solubility
